{"source": "patent US11786468B2", "about": "“Nanoparticles” (KING'S COLLEGE LONDON, priority 2015, dated 2023)", "key": {"[1]": {"assay": "7T MRI T1/T2 assessment and relaxometry of liposome samples", "type": "physicochemical", "design": "r1: unit not given here", "conditions": "for T1 (s) 1 param / T1 (s) 3 param / T1 (s) Image J / T2 (s) 1 param / T2 (s) Image J / T2 (s) 3 param: 7T", "source_text": "A series of MRI T1/T2 assessment studies have been carried out using a 7 T pre clinical MRI scanner, with the assistance of Dr Po-Wah So (James Black Centre, KCL). The focus here has been to derive reliable r1/r2 relaxivities per molar Gd(III) for liposome produced using the [Gd]DOTA.DSA, [Gd]DOTA.Ahx.DSA and [Gd]DOTA.Aoc.DSA. This is reliant on both accurate measurements of the T1/T2 effects and also the exact gadolinium concentration in the prepared liposome suspensions. The extrusion and gel filtration processes make this latter hard to estimate, so Inductively Coupled Plasma Mass Spectrometry (ICP-MS) quantification is being assessed. This is turn required testing of suitable acid digestion conditions since the lipid-chelates may not be analysed directly. For both MRI and ICP-MS, commercial Gadovist is being used a positive control contrast agent of known Gd content. Assessment of temperature, buffer salt and liposome size effects on T1/T2 are also underway.\nFIGS. 22 and 23 show Example T1 and T2 brightness traces for controls and liposome samples.\nMRI data (T1, T2 lower is brighter) is shown Table 1:\nComparison of liposomes containing different lipids as measured at 7T Magnet*."}, "[2]": {"assay": "Pharmacokinetics of topotecan in blood by HPLC", "type": "in vivo, Balb C Mice", "conditions": "i.v. tail vein, concentration matched", "description": "Balb C Mice were injected with IgFUS-TNPs encapsulating topotecan (8 mg/kg per mouse body weight) and drug pharmacokinetics monitored by blood sample analyses. Blood samples (50-100 μL) were collected at time intervals (2 min-4 h) and transferred into pre-weighed plastic vials containing heparin (5 uL). Cold methanol (100 μL) was added to each and the mixed samples stored over dry ice or at −20° C. until required. After thawing, each vial was weighed again and the difference used to estimate then original sample volume. […] Batches of 5 samples were analysed three times using an Agilent 1100 HPLC equipped with a cooled sample chamber (8-12° C.), a guarded Thermo Hypersil 30×4.6 mm, 5 μm C18 column, a Diode Array Detector (UV/vis absorbance) and an Agilent 1260 Infinity fluorescence detector. […] Detection was by absorbance (210/254/280 nm for proteins and other biologicals; 380 nm for topotecan; all using a bandwidth of 8 nm c.p. reference at 700 nm) and fluorescence (Ex 400 nm; Em 545 nm; PMT-gain 18). Injections were 5-20 μL depending on the sample concentrations and quantifications were calculated from the fluorescence peak areas after calibration (the detector response was effectively linear over the sensitive range). Topotecan could be reliably identified even at extremely low concentrations (10-20 ng/mL) by its intrinsic fluorescence and retention time (3.33±0.03 min; N=45). […]"}, "[3]": {"conditions": "19.6 °C, conc >0.3 mM, dil not given"}, "[4]": {"conditions": "19.6 °C, dil 1 (liposomes 20 mg/mL; Gadovist 3.1 or 3 mM), Gadovist 3 mM"}, "[5]": {"conditions": "19.6 °C, dil 1 (liposomes 20 mg/mL; Gadovist 3.1 or 3 mM), Gadovist 3.1 mM"}, "[6]": {"conditions": "35.5 °C, conc >0.3 mM, dil not given"}}, "note": "“And” between values parts separate entries of the source, which are not always exact repeats. Identical values can stand only once.", "data": [{"smiles": "O=C([O-])CN1CCN(CC(=O)[O-])CCN([C@H](CO)[C@H](O)CO)CCN(CC(=O)[O-])CC1.[Gd+3]", "note": "(racemic) [Gadovist]", "values": [{"measurement": "T1 (s) 1 param", "setting": "[1]; [3]", "value": 2.033, "unit": "s"}, {"measurement": "T1 (s) 3 param", "setting": "[1]; [3]", "value": 2.061, "unit": "s"}, {"measurement": "T1 (s) Image J", "setting": "[1]; [3]", "value": 2.061, "unit": "s"}, {"measurement": "T2 (s) 1 param", "setting": "[1]; [3]", "value": 0.206, "unit": "s"}, {"measurement": "T2 (s) Image J", "setting": "[1]; [3]", "value": 0.1, "unit": "s"}, {"measurement": "T1 (s) 1 param", "setting": "[1]; [4]", "value": 0.09174, "unit": "s"}, {"measurement": "T1 (s) 3 param", "setting": "[1]; [4]", "value": 0.07712, "unit": "s"}, {"measurement": "T1 (s) Image J", "setting": "[1]; [4]", "value": 0.092, "unit": "s"}, {"measurement": "T2 (s) 1 param", "setting": "[1]; [4]", "value": 0.04691, "unit": "s"}, {"measurement": "T2 (s) 3 param", "setting": "[1]; [4]", "value": 0.0488, "unit": "s"}, {"measurement": "T2 (s) Image J", "setting": "[1]; [4]", "value": 0.047, "unit": "s"}, {"measurement": "T1 (s) 1 param", "setting": "[1]; [5]", "value": 0.072, "unit": "s"}, {"measurement": "T1 (s) 3 param", "setting": "[1]; [5]", "value": 0.084, "unit": "s"}, {"measurement": "T1 (s) Image J", "setting": "[1]; [5]", "value": 0.084, "unit": "s"}, {"measurement": "T2 (s) 1 param", "setting": "[1]; [5]", "value": "0.0431 s and 0.0426 s"}, {"measurement": "T2 (s) 3 param", "setting": "[1]; [5]", "value": "0.0422 s and 0.0419 s"}, {"measurement": "T2 (s) Image J", "setting": "[1]; [5]", "value": 0.042, "unit": "s"}, {"measurement": "T1 (s) 1 param", "setting": "[1]; [6]", "value": 2.602, "unit": "s"}, {"measurement": "T1 (s) 3 param", "setting": "[1]; [6]", "value": 2.617, "unit": "s"}, {"measurement": "T1 (s) Image J", "setting": "[1]; [6]", "value": 2.606, "unit": "s"}, {"measurement": "T2 (s) 1 param", "setting": "[1]; [6]", "value": 0.153, "unit": "s"}, {"measurement": "T2 (s) Image J", "setting": "[1]; [6]", "value": 0.1, "unit": "s"}, {"measurement": "T1 (s) 1 param", "setting": "[1]; 39.5 °C, dil 1 (Gadovist 3 mM)", "value": 0.1297, "unit": "s"}, {"measurement": "T1 (s) 3 param", "setting": "[1]; 39.5 °C, dil 1 (Gadovist 3 mM)", "value": 0.1138, "unit": "s"}, {"measurement": "T1 (s) Image J", "setting": "[1]; 39.5 °C, dil 1 (Gadovist 3 mM)", "value": 0.13, "unit": "s"}, {"measurement": "T2 (s) 1 param", "setting": "[1]; 39.5 °C, dil 1 (Gadovist 3 mM)", "value": 0.05335, "unit": "s"}, {"measurement": "T2 (s) 3 param", "setting": "[1]; 39.5 °C, dil 1 (Gadovist 3 mM)", "value": 0.05578, "unit": "s"}, {"measurement": "T2 (s) Image J", "setting": "[1]; 39.5 °C, dil 1 (Gadovist 3 mM)", "value": 0.053, "unit": "s"}, {"measurement": "r1", "setting": "[1]; measured at 7T Magnet", "value": 4.8}]}, {"smiles": "CC[C@@]1(O)C(=O)OCc2c1cc1n(c2=O)Cc2cc3c(CN(C)C)c(O)ccc3nc2-1", "note": "[topotecan]", "values": [{"measurement": "drug clearance from the blood pool", "setting": "[2]", "value": "cleared from the blood pool in mins"}]}]}
